From patent US20110250135A1, “Piperazine Derivatives for Binding and Imaging Amyloid Plaques and Their Use” (Bayer Schering Pharma Aktiengesellschaft, priority 2008, published 2011)

Legend:
[1] = Biodistribution: organ distribution of F-18 signal in mice; type: in vivo, male NMRI mice; settings: for Organ distribution of F-18 signal, intestine: intestine (with content); for Organ distribution of F-18 signal, stomach: stomach (without content)
Procedure: Biodistribution and excretion studies were performed in male NMRI mice (body weight app. 30g; 3 animals per time point). The animals were kept under normal laboratory conditions at a temperature of 22±2° C. and a dark/light rhythm of 12 hours. Food and water were provided ad libitium. During an acclimation period of at least 3 days before the beginning of the study animals were clinically examined to ascertain the absence of abnormal clinical signs. At 2, 5, 30, 60, 240 min post intravenous injection via the tail vein of ca. 150 kBq in 100 μl of the test compound, urine and feces were quantitatively collected. At the same time points, animals were sacrificed by decapitation and under isoflurane anaesthesia and the following organs and tissues were removed for the determination of radioactivity using a gamma-counter: spleen, liver, kidney, lung, femur, heart, brain, fat, thyroid, muscle, skin, blood, tail, stomach (without content), testicle, intestine (with content), pancreas, adrenals, and the remaining body. For analysis the decay corrected percentage of the injected dose per tissue weight (% ID/g±standard deviation) was calculated.

[2] = molecular target: T1, Aβ plaques (Homo sapiens, UniProt P05067); assay: Autoradiographical analysis of binding to cryosections from cortex of AD patients and controls; settings: F-18 labeled compound; Alzheimer's disease patients (AD) vs controls without Aβ plaques
T1 construct: controls without Aβ plaques; from tissue; host or cells: frontal lobe / cortex sections (frozen and paraffin) from AD patients, FTD patients and age-matched controls
From the text: Fresh frozen as well as paraffin embedded sections of the frontal lobe from Alzheimer's dementia patients, frontotemporal dementia patients and age matched controls were used for the study. Frozen sections, sliced at 18 μm thickness on a cryostate (Leica, Germany) and paraffin sections, sliced on a sliding microtom (Leica) at a thickness of 6 μm, were mounted onto glass slides (Superfrost Plus, Fa.Menzel, Braunschweig Germany). Frozen sections were allowed to adhere to the slides for several nights at −20° C. The paraffin sections were deparaffinized using routine histological methods. For binding studies sections were incubated with the F-18 labeled test compound at 10 Bq/μl diluted in 25 mM Hepes buffer, pH 7.4, 0.1% (BSA) (200-300 μl/slide) for 1.5 hour at room temperature in a humidified chamber. For blocking experiments a 1000-fold access of the unlabeled test substance was added to the incubation mixture. After hybridization, sections were washed four times with Hepes buffer, 0.1% BSA (or alternatively two times with 40% ethanol) and finally dipped two times into dest. water for 10 sec. The air-dried sections were exposed to imaging plates and signals were detected by a phosphoimager device (Fuji BAS5000).

T1 sequence (P05067 672-713 limits assumed): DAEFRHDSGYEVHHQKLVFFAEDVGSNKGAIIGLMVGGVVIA

Compound: O=C(NCC(=O)N1CCN(c2ccc(OCc3ccccc3)cc2)CC1)c1ccc([18F])nc1 [Example 10e, N-{2-[4-(4-Benzyloxy-phenyl)-piperazin-1-yl]-2-oxoethyl}-6-[F-18]-fluoro-nicotinamide]
- Organ distribution of F-18 signal, adrenals ([1]; 2 min post i.v. injection): 7.86 % ID/g
- Organ distribution of F-18 signal, adrenals ([1]; 5 min post i.v. injection): 6.20 % ID/g
- Organ distribution of F-18 signal, adrenals ([1]; 30 min post i.v. injection): 2.36 % ID/g
- Organ distribution of F-18 signal, adrenals ([1]; 60 min post i.v. injection): 0.67 % ID/g
- Organ distribution of F-18 signal, adrenals ([1]; 240 min post i.v. injection): 0.43 % ID/g
- Organ distribution of F-18 signal, blood ([1]; 2 min post i.v. injection): 2.01 % ID/g
- Organ distribution of F-18 signal, blood ([1]; 5 min post i.v. injection): 1.98 % ID/g
- Organ distribution of F-18 signal, blood ([1]; 30 min post i.v. injection): 1.38 % ID/g
- Organ distribution of F-18 signal, blood ([1]; 60 min post i.v. injection): 0.55 % ID/g
- Organ distribution of F-18 signal, blood ([1]; 240 min post i.v. injection): 0.09 % ID/g
- Organ distribution of F-18 signal, brain ([1]; 2 min post i.v. injection): 4.99 % ID/g
- Organ distribution of F-18 signal, brain ([1]; 5 min post i.v. injection): 4.33 % ID/g
- Organ distribution of F-18 signal, brain ([1]; 30 min post i.v. injection): 1.44 % ID/g
- Organ distribution of F-18 signal, brain ([1]; 60 min post i.v. injection): 0.44 % ID/g
- Organ distribution of F-18 signal, brain ([1]; 240 min post i.v. injection): 0.04 % ID/g
- Organ distribution of F-18 signal, fat ([1]; 2 min post i.v. injection): 1.79 % ID/g
- Organ distribution of F-18 signal, fat ([1]; 5 min post i.v. injection): 2.66 % ID/g
- Organ distribution of F-18 signal, fat ([1]; 30 min post i.v. injection): 1.95 % ID/g
- Organ distribution of F-18 signal, fat ([1]; 60 min post i.v. injection): 0.67 % ID/g
- Organ distribution of F-18 signal, fat ([1]; 240 min post i.v. injection): 0.15 % ID/g
- Organ distribution of F-18 signal, femur ([1]; 2 min post i.v. injection): 1.44 % ID/g
- Organ distribution of F-18 signal, femur ([1]; 5 min post i.v. injection): 1.53 % ID/g
- Organ distribution of F-18 signal, femur ([1]; 30 min post i.v. injection): 1.15 % ID/g
- Organ distribution of F-18 signal, femur ([1]; 60 min post i.v. injection): 1.43 % ID/g
- Organ distribution of F-18 signal, femur ([1]; 240 min post i.v. injection): 1.75 % ID/g
- Organ distribution of F-18 signal, heart ([1]; 2 min post i.v. injection): 5.18 % ID/g
- Organ distribution of F-18 signal, heart ([1]; 5 min post i.v. injection): 4.49 % ID/g
- Organ distribution of F-18 signal, heart ([1]; 30 min post i.v. injection): 1.85 % ID/g
- Organ distribution of F-18 signal, heart ([1]; 60 min post i.v. injection): 0.69 % ID/g
- Organ distribution of F-18 signal, heart ([1]; 240 min post i.v. injection): 0.11 % ID/g
- Organ distribution of F-18 signal, intestine ([1]; 2 min post i.v. injection): 2.13 % ID/g
- Organ distribution of F-18 signal, intestine ([1]; 5 min post i.v. injection): 2.40 % ID/g
- Organ distribution of F-18 signal, intestine ([1]; 30 min post i.v. injection): 8.20 % ID/g
- Organ distribution of F-18 signal, intestine ([1]; 60 min post i.v. injection): 10.63 % ID/g
- Organ distribution of F-18 signal, intestine ([1]; 240 min post i.v. injection): 6.90 % ID/g
- Organ distribution of F-18 signal, kidney ([1]; 2 min post i.v. injection): 8.58 % ID/g
- Organ distribution of F-18 signal, kidney ([1]; 5 min post i.v. injection): 7.92 % ID/g
- Organ distribution of F-18 signal, kidney ([1]; 30 min post i.v. injection): 6.29 % ID/g
- Organ distribution of F-18 signal, kidney ([1]; 60 min post i.v. injection): 2.61 % ID/g
- Organ distribution of F-18 signal, kidney ([1]; 240 min post i.v. injection): 0.50 % ID/g
- Organ distribution of F-18 signal, liver ([1]; 2 min post i.v. injection): 7.44 % ID/g
- Organ distribution of F-18 signal, liver ([1]; 5 min post i.v. injection): 12.02 % ID/g
- Organ distribution of F-18 signal, liver ([1]; 30 min post i.v. injection): 9.60 % ID/g
- Organ distribution of F-18 signal, liver ([1]; 60 min post i.v. injection): 5.27 % ID/g
- Organ distribution of F-18 signal, liver ([1]; 240 min post i.v. injection): 2.29 % ID/g
- Organ distribution of F-18 signal, lung ([1]; 2 min post i.v. injection): 4.31 % ID/g
- Organ distribution of F-18 signal, lung ([1]; 5 min post i.v. injection): 3.86 % ID/g
- Organ distribution of F-18 signal, lung ([1]; 30 min post i.v. injection): 1.93 % ID/g
- Organ distribution of F-18 signal, lung ([1]; 60 min post i.v. injection): 0.89 % ID/g
- Organ distribution of F-18 signal, lung ([1]; 240 min post i.v. injection): 0.10 % ID/g
- Organ distribution of F-18 signal, muscle ([1]; 2 min post i.v. injection): 2.40 % ID/g
- Organ distribution of F-18 signal, muscle ([1]; 5 min post i.v. injection): 2.07 % ID/g
- Organ distribution of F-18 signal, muscle ([1]; 30 min post i.v. injection): 1.16 % ID/g
- Organ distribution of F-18 signal, muscle ([1]; 60 min post i.v. injection): 0.34 % ID/g
- Organ distribution of F-18 signal, muscle ([1]; 240 min post i.v. injection): 0.06 % ID/g
- Organ distribution of F-18 signal, pancreas ([1]; 2 min post i.v. injection): 4.59 % ID/g
- Organ distribution of F-18 signal, pancreas ([1]; 5 min post i.v. injection): 4.54 % ID/g
- Organ distribution of F-18 signal, pancreas ([1]; 30 min post i.v. injection): 2.27 % ID/g
- Organ distribution of F-18 signal, pancreas ([1]; 60 min post i.v. injection): 0.92 % ID/g
- Organ distribution of F-18 signal, pancreas ([1]; 240 min post i.v. injection): 1.07 % ID/g
- Organ distribution of F-18 signal, skin ([1]; 2 min post i.v. injection): 1.37 % ID/g
- Organ distribution of F-18 signal, skin ([1]; 5 min post i.v. injection): 1.76 % ID/g
- Organ distribution of F-18 signal, skin ([1]; 30 min post i.v. injection): 1.39 % ID/g
- Organ distribution of F-18 signal, skin ([1]; 60 min post i.v. injection): 0.51 % ID/g
- Organ distribution of F-18 signal, skin ([1]; 240 min post i.v. injection): 0.08 % ID/g
- Organ distribution of F-18 signal, spleen ([1]; 2 min post i.v. injection): 1.96 % ID/g
- Organ distribution of F-18 signal, spleen ([1]; 5 min post i.v. injection): 1.99 % ID/g
- Organ distribution of F-18 signal, spleen ([1]; 30 min post i.v. injection): 1.08 % ID/g
- Organ distribution of F-18 signal, spleen ([1]; 60 min post i.v. injection): 0.35 % ID/g
- Organ distribution of F-18 signal, spleen ([1]; 240 min post i.v. injection): 0.06 % ID/g
- Organ distribution of F-18 signal, stomach ([1]; 2 min post i.v. injection): 3.69 % ID/g
- Organ distribution of F-18 signal, stomach ([1]; 5 min post i.v. injection): 2.84 % ID/g
- Organ distribution of F-18 signal, stomach ([1]; 30 min post i.v. injection): 2.40 % ID/g
- Organ distribution of F-18 signal, stomach ([1]; 60 min post i.v. injection): 1.09 % ID/g
- Organ distribution of F-18 signal, stomach ([1]; 240 min post i.v. injection): 0.50 % ID/g
- Organ distribution of F-18 signal, tail ([1]; 2 min post i.v. injection): 8.65 % ID/g
- Organ distribution of F-18 signal, tail ([1]; 5 min post i.v. injection): 6.65 % ID/g
- Organ distribution of F-18 signal, tail ([1]; 30 min post i.v. injection): 1.86 % ID/g
- Organ distribution of F-18 signal, tail ([1]; 60 min post i.v. injection): 1.00 % ID/g
- Organ distribution of F-18 signal, tail ([1]; 240 min post i.v. injection): 0.69 % ID/g
- Organ distribution of F-18 signal, testicle ([1]; 2 min post i.v. injection): 1.53 % ID/g
- Organ distribution of F-18 signal, testicle ([1]; 5 min post i.v. injection): 1.81 % ID/g
- Organ distribution of F-18 signal, testicle ([1]; 30 min post i.v. injection): 1.28 % ID/g
- Organ distribution of F-18 signal, testicle ([1]; 60 min post i.v. injection): 0.52 % ID/g
- Organ distribution of F-18 signal, testicle ([1]; 240 min post i.v. injection): 0.06 % ID/g
- Organ distribution of F-18 signal, thyroid ([1]; 2 min post i.v. injection): 2.51 % ID/g
- Organ distribution of F-18 signal, thyroid ([1]; 5 min post i.v. injection): 2.62 % ID/g
- Organ distribution of F-18 signal, thyroid ([1]; 30 min post i.v. injection): 1.26 % ID/g
- Organ distribution of F-18 signal, thyroid ([1]; 60 min post i.v. injection): 0.56 % ID/g
- Organ distribution of F-18 signal, thyroid ([1]; 240 min post i.v. injection): 0.35 % ID/g
- autoradiographical analysis of binding to cryosections from cortex [2]: Specific binding in plaque-rich regions of AD samples
